Results taken from US7763601B2, “Prevention and treatment of obesity” (N-Gene Research Laboratories, Inc., priority 2006, dated 2010).

Experiments:
female Wistar rats [1] = test: Body weight gain induced by risperidone in rats, 21 days; format: in vivo, rat; settings: for Body weight gain: day 21, control 27 g
Procedure: The experiments were carried out in eight-week-old female Wistar rats. Each test group consisted of 10 animals fed with normal laboratory chow and tap water ad libitum. The animals were treated with vehicle (control group) and the compounds to be tested for 21 days. In this experimental system, the antipsychotic risperidone was injected subcutaneously once daily in doses of 0.005 and 0.05 mg/kg, respectively to induce body weight gain.

female Wistar rats [2] = test: Body weight gain induced by olanzapine in rats, 28 days; format: in vivo, rat; settings: for Body weight (average in the group): day 28, control 255 g
Procedure: Groups of female Wistar rats were treated with vehicle (control group) and the agents to be tested for 28 days. Each group consisted of 6 animals fed with normal laboratory chow and tap water ad libitum. The agents to be tested were administered twice daily, at 8 h and 18 h, perorally. The antipsychotic olanzapine was administered in a dose of 1 mg/kg to induce body weight gain.

female NMRI mice = test: Body weight gain induced by olanzapine or clozapine in mice, 15 days; format: in vivo, mouse; settings: agent alone p.o. for 15 days (olanzapine 0.5, clozapine 1, BGP-15 10 mg/kg); between first and 15th day; control 2.98 g
Procedure: Groups of female NMRI mice were treated with vehicle (control group) and the agents to be tested for 15 days, perorally. Each group consisted of 10 animals fed with normal laboratory chow and tap water ad libitum. Treatments were performed between 5 and 6 pm, shortly before the dark phase, the primary feeding period of the day. Olanzapine was administered in a dose of 0.5 mg/kg, while clozapine was administered in a dose of 1 mg/kg to induce body weight gain.

[3] = agent alone, p.o. twice daily for 28 days (olanzapine 1, BGP-15 10, metformin 100, rosiglitazone 3 mg/kg), starting weight 171 g
[4] = agent together with olanzapine 1 mg/kg, p.o. twice daily for 28 days (BGP-15 10, metformin 100, rosiglitazone 3 mg/kg), olanzapine alone 330 g

SMILES	effect on average weight relative to the control group (female Wistar rats [2]; agent alone, 28 days)	Body weight (average in the group) (female Wistar rats [2]; [3]) [g]	Body weight (average in the group) (female Wistar rats [2]; [4]) [g]	Body weight gain (average in the group) (female NMRI mice) [g]	further results
Cc1nc2n(c(=O)c1CCN1CCC(c3noc4cc(F)ccc34)CC1)CCCC2 [Risperidone, risperidone]					effect on body weight gain relative to the control group (female Wistar rats [1]; agent alone, 21 days): increased body weight gain relative to the control group; Body weight gain (female Wistar rats [1]; risperidone alone 0.005 mg/kg s.c. once daily): 39.7 g; Body weight gain (female Wistar rats [1]; risperidone alone 0.05 mg/kg s.c. once daily): 41 g
CN(C)C(=N)N=C(N)N [Metformin, metformin]	somewhat higher average weight relative to the control group	266	331		effect on the weight gain induced by olanzapine (female Wistar rats [2]; agent together with olanzapine 1 mg/kg, 28 days): did not reduce
Cc1cc2c(s1)Nc1ccccc1N=C2N1CCN(C)CC1 [Olanzapine, 2-methyl-4-(4-methyl-1-piperazinyl)-10H-thieno[2,3-b][1,5]-benzodiazepine]	high average weight relative to the control group	330		3.5	
CN1CCN(C2=Nc3cc(Cl)ccc3Nc3ccccc32)CC1 [Clozapine, 8-chloro-11-(4-methyl-1-piperazinyl)-5H-dibenzo[b,e][1,4]diazepine]				4.11	
CN(CCOc1ccc(CC2SC(=O)NC2=O)cc1)c1ccccn1 (stereo not shown) [Rosiglitazone, rosiglitazone]		284	359		
